Columns and labels:
hα7-wt nAChR = biological target: T1, hα7-wt nAChR (Homo sapiens, UniProt P36544); experiment: Ca2+ flux imaging (FDSS) (Protocol B), potentiation of the choline response; assay type: cell-based; conditions: Ca2+ assay as described in D.1; for EC50: "<5" = activity did not reach a top plateau at maximal concentration; for Emax: read-out: % Efficacy
T1 construct: expressed in transfected cells
Procedure: Ca^2+ Flux Imaging (FDSS) (Protocol B)
• Hanks buffered saline solution (HBSS, Invitrogen, Belgium), supplemented with 10 mM HEPES (Invitrogen, Belgium), CaCl2 to a final concentration of 5 mM, 0.1% Bovine serum albumin (Sigma-Aldrich NV, Belgium). b) Calcium-Sensitive Dye—Fluo-4AM • Fluo-4AM (Molecular Probes, USA) was dissolved in DMSO containing 10% Pluronic acid (Molecular Probes, USA) to give a stock solution which was diluted in assay buffer supplemented with 5 mM probenicid (Sigma, Aldrich NV, Belgium) to give a final concentration of 2 μM. c) 384-Well Plates • Black 384 well plate black/clear plates, PDL pre-coated (Corning, Incorporated, USA) d) Calcium Flux Measurement • A Functional drug screening system (FDSS, Hamamatsu) was used to measure intracellular free-calcium flux signals. Method
Monolayers of hα7-wt nAChR-expressing cells were grown in multi-well plates, in particular black-sided, transparent bottomed 384 well plates coated with poly-D-lysine for 24 hours prior to loading with a fluorescent calcium indicator, in a particular embodiment loading with fluo-4AM for up to 120 minutes.
PAM activity was detected in real time by applying the compounds to be tested to the loaded cells along with a α7 nicotinic receptor agonist during constant monitoring of cellular fluorescence in a FDSS. Compounds giving peak fluorescent responses greater than the response due to agonist alone, were considered to be α7 nAChR PAM's. In a particular embodiment, the α7 nicotinic receptor agonist was choline, a more particular embodiment choline applied at a sub-maximal concentration of 100 μM. In a further setting of the present invention the compounds to be tested were applied prior to the α7 nicotinic receptor agonist, in a particular embodiment up to 10 minutes prior to the agonist.
A control response to choline was calculated on each plate from the difference in peak in fluorescence in wells receiving either choline or assay buffer alone. Compounds of the present invention were tested at a concentration range from 0.01 μM to 30 μM. Compounds were considered to have an interesting activity when they potentiated the choline signal at least with 200% when tested at a concentration of 30 μM (the efficacy of 100 μM choline was defined as 100% in the absence of a PAM). An EC50 (or pEC50) was determined as a concentration relating to half the maximal effect, when a clear sigmoidal curve with top plateau was obtained.

[1] = biological target: T2, hα7-wt nAChR-expressing GH4C1 cells (Homo sapiens, UniProt P36544); experiment: Patch-clamp current recording (whole-cell voltage clamp), potentiation of the choline current and PAM type; assay type: cell-based; parameters: key: Type 0 compounds minimally enhance the effect size of the current elicited by 1 mM choline.; Type 1 compounds enhance the effect size of the current elicited by 1 mM choline but minimally alter the kinetics of the receptor.; Type 2 compounds enhance the effect size of the current elicited by 1 mM choline while reducing the rate and/or the extent of desensitization.; Type 3 compounds enhance the effect size of the current elicited by 1 mM choline. When tested at higher concentrations up to 10 μM they completely inhibit desensitization, in particular a 1 mM choline application of 250 milliseconds.; Type 4 compounds allow for an initial desensitization of the receptor followed by a re-opening of the receptor during agonist application; conditions: 1 mM choline
T2 construct: expressed in transfected cells
Procedure: The compounds of the present invention are classified as type 1-4, based on qualitative kinetic properties, as determined by whole-cell voltage-clamp recordings. This classification is based on the effect of an α7 PAM compound, as described hereinbefore, on the signal elicited by an agonist application. In particular, said agonist is choline at a concentration of 1 mM. In a preferred experimental setting, said α7 PAM compound and choline are simultaneously applied to the cell, as described hereinafter. Desensitization is defined as the closure of the receptor upon activation during the application of the agonist in whole-cell voltage-clamp electrophysiology measurements seen as the reduction of the […] current after initial activation by the agonist.
The definition of the PAM types 1-4 is described hereinafter: • Type 0 compounds minimally enhance the effect size of the current elicited by 1 mM choline. • Type 1 compounds enhance the effect size of the current elicited by 1 mM choline but minimally alter the kinetics of the receptor. In particular, the rate and the extent of desensitization, elicited by the agonist, is not affected. The compound-modulated response to 1 mM choline, therefore, is a close to linear scaling of the 1 mM choline response in absence of the α7 PAM compound. • Type 2 compounds enhance the effect size of the current elicited by 1 mM choline while reducing the rate and/or the extent of desensitization. • Type 3 compounds enhance the effect size of the current elicited by 1 mM choline. […] At low-potency concentrations of the α7 PAM compound, the agonist-induced activation, which is followed by desensitization, can still be separated from the compound-induced re-opening as an initial inward current-maximum. At higher potency concentrations of the α7 PAM compound, the re-opening occurs faster than the closure due to desensitization so that the initial current-maximum disappears.
A compound was considered to have interesting PAM-like activity when the potentiation of the peak current was at least 200% compared to the control choline response (=100%). Such compounds are classified as belonging to a particular PAM type in the Experimental Part. Compounds not meeting the condition are not classified as belonging to a particular PAM-type.
The compounds also have a potentiating effect on the response to choline when measured by whole-cell patch clamp electrophysiology in GH4C1 cells stably over-expressing the human wild-type α7 receptor.
Patch-Clamp Current Recording
Patch-clamp recording from mammalian cells has provided a powerful means of assessing the function of membrane-bound proteins thought to be subunits of ligand-gated ion channels. Activation of such proteins by endogenous or exogenous ligands cause opening of a pore associated with the receptor through which ions flow down their electrochemical gradient. In the case of the hα7-wt nAChR-expressing GH4C1 recombinant cell line the preferential permeability to calcium of this receptor means that calcium flows into the cell upon activation by ACh, choline and other nicotinic ligands giving rise to a calcium current. Since this receptor rapidly desensitizes in the presence of agonist it is important an application system is used which is capable of very rapid switching of solutions (<100 ms) to prevent partial or full desensitisation of receptor responses coincident with the time of agonist application. Consequently, a second convenient technique to assess the enhancement of nicotinic efficacy is patch-clamp recording from hα7-wt nAChR-expressing GH4C1 cells coupled with a rapid-application system.
• The external recording solution consisted of 152 mM NaCl, 5 mM KCl, 1 mM MgCl2, 1 mM Calcium, 10 mM HEPES; pH 7.3. […]

T1 sequence (P36544 23-502): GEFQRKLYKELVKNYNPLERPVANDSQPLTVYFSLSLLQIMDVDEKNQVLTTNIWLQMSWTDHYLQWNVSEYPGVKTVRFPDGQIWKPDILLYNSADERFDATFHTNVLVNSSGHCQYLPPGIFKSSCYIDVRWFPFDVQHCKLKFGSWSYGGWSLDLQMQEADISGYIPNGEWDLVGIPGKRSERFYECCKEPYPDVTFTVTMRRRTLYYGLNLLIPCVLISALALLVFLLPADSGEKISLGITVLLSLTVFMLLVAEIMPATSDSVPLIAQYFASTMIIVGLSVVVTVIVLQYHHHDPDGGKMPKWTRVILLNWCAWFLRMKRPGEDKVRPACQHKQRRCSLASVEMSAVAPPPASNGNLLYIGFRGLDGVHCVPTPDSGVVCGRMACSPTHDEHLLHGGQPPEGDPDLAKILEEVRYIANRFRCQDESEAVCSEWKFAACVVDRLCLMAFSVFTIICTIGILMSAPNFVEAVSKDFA
T2 sequence (P36544 23-502): as above

Row | Structure (SMILES) | EC50 (hα7-wt nAChR) [nM] | Emax (hα7-wt nAChR) [%] | PAM type [1]
1 | CC[C@H](O)Cn1nc(Nc2cc(OC)cc(C(F)(F)F)c2)cc1-c1ccnc(C)c1C [compound 53] | 1070 | 482 | 0
2 | CNC(=O)Cn1nc(Nc2cccc(Cl)c2)cc1-c1cc(C)nc(C)c1 [compound 54] | 977 | – | 2
3 | CNC(=O)Cn1nc(Nc2ccc(F)c(F)c2)cc1-c1cc(C)nc(C)c1 [compound 55] | 1700 | – | 2
4 | Cc1cc(-c2cc(Nc3cccc(Cl)c3)nn2CCC(=O)N(C)C)cc(C)n1 [compound 56] | 525 | – | 2
5 | Cc1cc(-c2cc(Nc3ccc(F)c(F)c3)nn2CC(=O)NCC2CC2)cc(C)n1 [compound 57] | 209 | – | 2
6 | CC[C@H](O)Cn1nc(Nc2cccc(Cl)c2)cc1-c1cc(C)nc(C)c1 [compound 58] | 759 | – | 1
7 | CC[C@H](O)Cn1nc(Nc2ccc(F)c(F)c2)cc1-c1cc(C)nc(C)c1 [compound 59] | 617 | – | 1
8 | CCNc1cc(-c2cc(Nc3ccc(F)c(F)c3)nn2C[C@H](C)O)ccn1 [compound 62] | 1320 | – | 1
9 | CCNc1cc(-c2cc(Nc3ccc(F)c(F)c3)nn2C[C@@H](O)CC)ccn1 [compound 65] | 575 | 1000 | 2
10 | CCNc1cc(-c2cc(Nc3ccc(F)c(C(F)(F)F)c3)nn2C[C@@H](O)CC)cc(C)n1 [compound 68] | 724 | – | 0
11 | COCc1cc(-c2cc(Nc3ccc(F)c(F)c3)nn2CCC(=O)N(C)C)ccn1 [compound 70] | 1350 | – | 3
12 | CC[C@H](O)Cn1nc(Nc2cc(F)cc(F)c2)cc1-c1ccnc(COC)c1 [compound 71] | 1380 | 700 | 1
13 | CNC(=O)Cn1nc(Nc2cc(F)c(F)c(F)c2)cc1-c1ccc2c(c1)OCCO2 [compound 74] | 251 | – | 2
14 | CNC(=O)Cn1nc(Nc2cccc(C(F)(F)F)c2)cc1-c1ccc2c(c1)OCCO2 [compound 76] | 347 | – | 4
15 | CNC(=O)Cn1nc(Nc2cccc(OC(F)(F)F)c2)cc1-c1ccc2c(c1)OCCO2 [compound 77] | 417 | – | 4
16 | C[C@H](O)Cn1nc(Nc2cc(F)c(F)c(F)c2)cc1-c1ccc2c(c1)OCCO2 [compound 85] | 1100 | 400 | 0
17 | Cc1cc(-c2cc(Nc3ccc4c(c3)OC(F)(F)O4)nn2CC(=O)NCC2CC2)ccn1 [compound 95] | 234 | – | 2
18 | Cc1cc(-c2cc(Nc3cccc(Cl)c3)nn2CC(=O)NCC2CC2)cc(C)n1 [compound 100] | 339 | – | 2

Continued, in another order:

Row | EC50 (hα7-wt nAChR) [nM] | Emax (hα7-wt nAChR) [%] | Structure (SMILES) | PAM type [1]
19 | 2290 | – | CNC(=O)Cn1nc(Nc2ccc3c(c2)OC(F)(F)O3)cc1-c1ccncc1 [compound 86] | 3
20 | 871 | – | CCNC(=O)Cn1nc(Nc2ccc3c(c2)OC(F)(F)O3)cc1-c1ccncc1 [compound 87] | 3
21 | 912 | – | Cc1cnccc1-c1cc(Nc2ccc3c(c2)OC(F)(F)O3)nn1CCC(=O)N(C)C [compound 90] | 4
22 | 2630 | – | CCNC(=O)Cn1nc(Nc2ccc3c(c2)OC(F)(F)O3)cc1-c1ccncc1C [compound 91] | 2
23 | 1860 | – | CNC(=O)Cn1nc(Nc2ccc3c(c2)OC(F)(F)O3)cc1-c1ccnc(C)c1 [compound 92] | 2
24 | 1000 | – | CCNC(=O)Cn1nc(Nc2ccc3c(c2)OC(F)(F)O3)cc1-c1ccnc(C)c1 [compound 93] | 2
25 | 240 | – | Cc1cc(-c2cc(Nc3ccc4c(c3)OC(F)(F)O4)nn2CCC(=O)N(C)C)ccn1 [compound 94] | 2
26 | 182 | – | COCc1cc(-c2cc(Nc3ccc4c(c3)OC(F)(F)O4)nn2CCC(=O)N(C)C)ccn1 [compound 96] | 3
